Reference: ChEMBL document CHEMBL1152010, “Synthesis of new amide-linked N-hydroxyurea 5-lipoxygenase inhibitors by an intramolecular oxygen to nitrogen acyl transfer” (Bioorg Med Chem Lett, 1993)

Legend:
[1] = Half life after oral dosing in rats; format: ADME, organism-based; details: rat, in vivo
[2] = species: Homo sapiens; assay: Tested for the inhibition of leukotriene biosynthesis in human whole blood; format: functional

SMILES	half-life [1] [h]	IC50 [2] [nM]
NC(=O)N(O)CCNC(=O)c1cccc(Oc2ccccc2)c1	3.6	230
NC(=O)N(O)C/C=C/c1cccc(Oc2ccccc2)c1	1.5	90
